Here are results for 16 compounds from patent US10449258B2, “Antibody drug conjugate, intermediate, preparation method, pharmaceutical composition and uses thereof” (XDCEXPLORER (SHANGHAI) CO., LTD., priority 2015, dated 2019).

Series [1] has as its system Her2 low expression human MCF-7 breast tumor cells. The series is described as follows: Cytotoxicity assay (growth inhibition, CellTiter-Glo) on MCF-7. As for the experimental part:
(§1) Her2-positive human BT474 breast tumor cells (BT474 for short), Her2 low expression human MCF-7 breast tumor cells (MCF-7 for short), and human breast tumor cell strain MCF7-Her2 with stable-transfected Her2 outside MCF-7 (MCF-7-Her2 for short) were used (they were prepared by the methods disclosed in the literatures for preparing recombinant cells: Teemu T. Junttila, et al., Breast. Cancer Res. Treat., 2011, 128, 347 and Jeffrey J. Wallin et al., Clin. Cancer Res., 2012, 18, 3901, the contents of which are incorporated herein by reference in their entireties). The growth inhibition of tumor cells by T-CE-040 and T-CE-063 antibody drug conjugates were evaluated. BT474, MCF7-Her2 and MCF-7 were digested with 0.25% (v/v) trypsin and the cells were stripped and then suspended in 100 μL complete medium. 2,000 cells were inoculated in a 96-well plate and cultured, grew adherently overnight at 37° C., then 100 μL T-CE-040 and T-CE-063 antibody drug conjugates with different concentration gradients and the complete medium were added. After 120 hours, relative cell proliferation analysis was performed by adding 50 μL CellTiter-Glo® […] Cell Activation Reagent (CellTiter-GloB Luminescent, Promega).
Background: ATP-based viability assays read luminescence as a measure of living cells.

Series [2] deals with human breast tumor cell strain MCF7-Her2 with stable-transfected Her2. The series is described as follows: Cytotoxicity assay (growth inhibition, CellTiter-Glo) on MCF7-Her2. As for the experimental part: as §1
Series [3] deals with Her2-positive human BT474 breast tumor cells. Put plainly: Cytotoxicity assay (growth inhibition, CellTiter-Glo) on BT474. How it is done:
as §1

Where [4] appears, read: Homo sapiens, MCF7, 120 h, read-out: Cytotoxicity assay IC50 MCF7, MCF-7 cells, 120 hours, CellTiter-Glo.
The mark [5] stands for this setting: Homo sapiens, 120 h, read-out: Cytotoxicity assay IC50 MCF-Her2, MCF7-Her2 cells, 120 hours, CellTiter-Glo.
Where [6] appears, read: Homo sapiens, BT-474, 120 h, read-out: Cytotoxicity assay IC50 BT474, BT474 cells, 120 hours, CellTiter-Glo.

Each structure is given as a SMILES string. Read-outs that look alike come from different tables or passages of the source.

Broadly, the IC50 is the point on the concentration scale where inhibition reaches its midpoint. Turning to `COc1cc2cc(c1Cl)N(C)C(=O)C[C@H](OC(=O)[C@H](C)N(C)C(CCSC1CC(=O)N(C[C@H]3CC[C@H](C(=O)ON4C(=O)CCC4=O)CC3)C1=O)C(F)(F)F)[C@]1(C)O[C@H]1[C@H](C)C1C[C@@](O)(NC(=O)O1)[C@H](OC)/C=C/C=C(\C)C2` (stereo partly drawn) [CE-038], the half-maximal inhibitory concentration (IC50) was found to be 873 nM in series [1] (setting [4]), 425 nM in series [2] (setting [5]) and 163 nM in series [3] (setting [6]).
Consider `COc1cc2cc(c1Cl)N(C)C(=O)CC(OC(=O)[C@H](C)N(C)C(CCSSCCCC(=O)ON1C(=O)CCC1=O)C(F)(F)F)[C@]1(C)O[C@H]1[C@H](C)[C@@H]1C[C@@](O)(NC(=O)O1)[C@H](OC)/C=C/C=C(\C)C2` (stereo partly drawn) [CE-041], for which the IC50 in series [1] (setting [4]) is 185 nM; in series [2] (setting [5]), 126 nM; in series [3] (setting [6]) it was 68.3 nM.
The like results for `COc1cc2cc(c1Cl)N(C)C(=O)C[C@H](OC(=O)[C@H](C)OCCOCCOCC(=O)ON1C(=O)CCC1=O)[C@]1(C)O[C@H]1[C@H](C)C1C[C@@](O)(NC(=O)O1)[C@H](OC)/C=C/C=C(\C)C2` [CE-045] were, in that order, 91.2 nM, 69.2 nM and 133 nM.
The corresponding values for `COc1cc2cc(c1Cl)N(C)C(=O)C[C@H](OC(=O)[C@H](C)OCCOCCOCCOCCOCCOCCN1C(=O)C=CC1=O)[C@]1(C)O[C@H]1[C@H](C)C1C[C@@](O)(NC(=O)O1)[C@H](OC)/C=C/C=C(\C)C2` [CE-046] are 462 nM, 232 nM and 375 nM.
In the case of `COc1cc2cc(c1Cl)N(C)C(=O)C[C@H](OC(=O)[C@H](C)OCCOCCOCCN1C(=O)C=CC1=O)[C@]1(C)O[C@H]1[C@H](C)C1C[C@@](O)(NC(=O)O1)[C@H](OC)/C=C/C=C(\C)C2` [CE-047], the IC50 is 327 nM in series [1] (setting [4]), 134 nM in series [2] (setting [5]) and 325 nM in series [3] (setting [6]).
The like results for `COc1cc2cc(c1Cl)N(C)C(=O)C[C@H](OC(=O)COCCCSC1CC(=O)N(C[C@H]3CC[C@H](C(=O)ON4C(=O)CCC4=O)CC3)C1=O)[C@]1(C)O[C@H]1[C@H](C)C1C[C@@](O)(NC(=O)O1)[C@H](OC)/C=C/C=C(\C)C2` (stereo partly drawn) [CE-048] were, in that order, 171 nM, 72.1 nM and 266 nM.
For the compound `COc1cc2cc(c1Cl)N(C)C(=O)C[C@H](OC(=O)C(C)(C)OCCCSC1CC(=O)N(C[C@H]3CC[C@H](C(=O)ON4C(=O)CCC4=O)CC3)C1=O)[C@]1(C)O[C@H]1[C@H](C)C1C[C@@](O)(NC(=O)O1)[C@H](OC)/C=C/C=C(\C)C2` (stereo partly drawn) [CE-049], the IC50 in series [1] (setting [4]) was determined as 207 nM; in series [2] (setting [5]) it was 139 nM; in series [3] (setting [6]), 138 nM.
For the compound `COc1cc2cc(c1Cl)N(C)C(=O)C[C@H](OC(=O)[C@H](C)OCCOCCOCCNC(=O)CBr)[C@]1(C)O[C@H]1[C@H](C)C1C[C@@](O)(NC(=O)O1)[C@H](OC)/C=C/C=C(\C)C2` [CE-050], the IC50 turned out to be 14.4 nM in series [1] (setting [4]), 7 nM in series [2] (setting [5]) and 26.1 nM in series [3] (setting [6]).
Consider `COc1cc2cc(c1Cl)N(C)C(=O)C[C@H](OC(=O)[C@H](C)OCCCSC1CC(=O)N(C[C@H]3CC[C@H](C(=O)ON4C(=O)CCC4=O)CC3)C1=O)[C@]1(C)O[C@H]1[C@H](C)C1C[C@@](O)(NC(=O)O1)[C@H](OC)/C=C/C=C(\C)C2` (stereo partly drawn) [CE-051], for which the IC50 in series [1] (read-out: Cytotoxicity assay IC50 MCF7, MCF-7 cells, 120 hours, CellTiter-Glo) stood at 119 nM; in series [2] (read-out: Cytotoxicity assay IC50 MCF-Her2, MCF7-Her2 cells, 120 hours, CellTiter-Glo) it was 51.4 nM; in series [3] (read-out: Cytotoxicity assay IC50 BT474, BT474 cells, 120 hours, CellTiter-Glo), 112 nM.
As for `COc1cc2cc(c1Cl)N(C)C(=O)C[C@H](OC(=O)[C@H](C)OCCOCCOCCOCCOCCOCCNC(=O)CBr)[C@]1(C)O[C@H]1[C@H](C)C1C[C@@](O)(NC(=O)O1)[C@H](OC)/C=C/C=C(\C)C2` [CE-052a], the IC50 in series [1] (setting [4]) was 18.4 nM; in series [2] (setting [5]), 9.8 nM; in series [3] (setting [6]) it was 33.1 nM.
On to `COc1cc2cc(c1Cl)N(C)C(=O)C[C@H](OC(=O)C1CCC(CSSC)OC1)[C@]1(C)O[C@H]1[C@H](C)C1C[C@@](O)(NC(=O)O1)[C@H](OC)/C=C/C=C(\C)C2` (stereo partly drawn) [CE-053-1], for which the figures for the half-maximal inhibitory concentration (IC50) in series [1] (setting [4]), in series [2] (setting [5]) and in series [3] (setting [6]) were 22 nM, 13 nM and 22 nM, respectively.
In the case of `COc1cc2cc(c1Cl)N(C)C(=O)C[C@H](OC(=O)C(COCCSSC)OC)[C@]1(C)O[C@H]1[C@H](C)C1C[C@@](O)(NC(=O)O1)[C@H](OC)/C=C/C=C(\C)C2` (stereo partly drawn) [CE-056], the figures for the IC50 in series [1] (setting [4]), in series [2] (setting [5]) and in series [3] (setting [6]) were 17 nM, 217 nM and 39 nM, respectively.
For the compound `COc1cc2cc(c1Cl)N(C)C(=O)C[C@H](OC(=O)[C@@H](C)N(C)C(=O)CCS)C1(C)O[C@H]1[C@H](C)C1C[C@@](O)(NC(=O)O1)[C@H](OC)/C=C/C=C(\C)C2` (stereo partly drawn) [DM1, N2′-deacetyl-N2′-(3-mercapto-1-oxopropyl)maytansine, reference compound], the figures for the IC50 in series [1] (setting [4]), in series [2] (setting [5]) and in series [3] (setting [6]) were 16 nM, 14 nM and 21 nM, respectively.
`COc1cc2cc(c1Cl)N(C)C(=O)C[C@H](OC(=O)[C@@H](C)N(C)C(=O)CCSSC)C1(C)O[C@H]1[C@H](C)C1C[C@@](O)(NC(=O)O1)[C@H](OC)/C=C/C=C(\C)C2` (stereo partly drawn) [DM1-SMe, reference compound]: the IC50 in series [1] (Homo sapiens, MCF7, 120 h, read-out: Cytotoxicity assay IC50 MCF7) was found to be 9.5 nM; in series [2] (Homo sapiens, 120 h, read-out: Cytotoxicity assay IC50 MCF-Her2), 7.3 nM; in series [3] (Homo sapiens, BT-474, 120 h, read-out: Cytotoxicity assay IC50 BT474), 9.3 nM.
In the case of `COc1cc2cc(c1Cl)N(C)C(=O)C[C@H](OC(=O)[C@H](C)OCCOCCSC1CC(=O)N(CCC(=O)NCCOCCOCCC(=O)ON3C(=O)CCC3=O)C1=O)[C@]1(C)O[C@H]1[C@H](C)C1C[C@@](O)(NC(=O)O1)[C@H](OC)/C=C/C=C(\C)C2` (stereo partly drawn) [XDCE-M-001], the results for the IC50 in series [1] (setting [4]), in series [2] (setting [5]) and in series [3] (setting [6]) were 330 nM, 182 nM and 456 nM, respectively.
In the case of `COc1cc2cc(c1Cl)N(C)C(=O)C[C@H](OC(=O)[C@H](C)OCCOCCSC1CC(=O)N(CCC(=O)NCCOCCOCCOCCC(=O)ON3C(=O)CCC3=O)C1=O)[C@]1(C)O[C@H]1[C@H](C)C1C[C@@](O)(NC(=O)O1)[C@H](OC)/C=C/C=C(\C)C2` (stereo partly drawn) [XDCE-M-002], the values for the IC50 in series [1] (setting [4]), in series [2] (setting [5]) and in series [3] (setting [6]) were 51.5 nM, 64.3 nM and 41.6 nM, respectively.
